pIC50: −log10 of the molar value. Active and inactive are the calls of the source. The rule behind the calls is not given here.
Tests used:
Mus musculus [1] = assay: Anti-pulmonary fibrosis activity in bleomycin-induced C57BL/6 mouse model of pulmonary fibrosis assessed as increase in body weight at 50 to 100 mg/kg, ip for 3 weeks; type: functional, organism-based; settings: dose 50-100 mg/kg
[2] = Stability of compound in human liver microsomes assessed as remaining parent compound at 100 uM incubated after 60 mins in presence of NADPH by LC-MS/MS analysis; type: ADME, Microsome; settings: read-out: Stability
HELF = assay: Anti-pulmonary fibrosis activity against TGF-beta1-induced HELF cells assessed as reduction in alpha-SMA protein expression incubated for 48 hrs by Western blot analysis; type: functional, cell-based; settings: Homo sapiens, dose 2.5-10 µM
[3] = biological target: T1, Protein deacetylase HDAC6 (Homo sapiens, UniProt Q9UBN7); assay: Inhibition of recombinant human full length HDAC6 using Boc-Lys (Ac)-AMC as substrate incubated for 120 mins by fluorescence analysis
T1 sequence (Q9UBN7 whole entry): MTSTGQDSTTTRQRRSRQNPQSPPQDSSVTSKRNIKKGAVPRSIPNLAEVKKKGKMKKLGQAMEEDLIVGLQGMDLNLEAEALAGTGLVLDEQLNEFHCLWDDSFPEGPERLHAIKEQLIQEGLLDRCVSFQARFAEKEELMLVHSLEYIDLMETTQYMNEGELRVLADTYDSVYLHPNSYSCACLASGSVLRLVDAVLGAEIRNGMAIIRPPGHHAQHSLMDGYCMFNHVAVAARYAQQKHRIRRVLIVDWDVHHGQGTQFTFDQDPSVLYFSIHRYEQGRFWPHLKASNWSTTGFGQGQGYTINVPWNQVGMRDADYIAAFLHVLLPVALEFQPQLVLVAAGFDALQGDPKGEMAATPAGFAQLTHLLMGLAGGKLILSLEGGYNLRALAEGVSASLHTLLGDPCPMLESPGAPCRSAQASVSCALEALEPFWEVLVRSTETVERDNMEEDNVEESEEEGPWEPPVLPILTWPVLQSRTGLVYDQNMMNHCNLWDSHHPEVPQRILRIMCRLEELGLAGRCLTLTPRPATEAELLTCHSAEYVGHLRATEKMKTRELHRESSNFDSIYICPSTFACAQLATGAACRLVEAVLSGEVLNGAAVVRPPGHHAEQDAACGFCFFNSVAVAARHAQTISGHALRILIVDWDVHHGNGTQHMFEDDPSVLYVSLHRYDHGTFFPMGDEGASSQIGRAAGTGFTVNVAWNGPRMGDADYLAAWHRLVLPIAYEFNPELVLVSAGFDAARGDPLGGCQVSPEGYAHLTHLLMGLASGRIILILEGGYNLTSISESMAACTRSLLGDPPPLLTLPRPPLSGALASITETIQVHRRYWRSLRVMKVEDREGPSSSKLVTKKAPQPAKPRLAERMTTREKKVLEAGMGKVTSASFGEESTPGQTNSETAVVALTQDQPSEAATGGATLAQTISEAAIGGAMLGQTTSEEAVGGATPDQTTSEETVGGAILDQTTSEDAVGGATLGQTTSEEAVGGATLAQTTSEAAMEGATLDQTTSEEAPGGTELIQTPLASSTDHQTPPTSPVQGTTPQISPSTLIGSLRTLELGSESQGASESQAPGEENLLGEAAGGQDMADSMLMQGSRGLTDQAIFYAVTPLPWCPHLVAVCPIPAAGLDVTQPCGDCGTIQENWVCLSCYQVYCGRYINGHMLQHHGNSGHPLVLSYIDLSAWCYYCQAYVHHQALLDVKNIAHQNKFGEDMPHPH

[4] = Intrinsic clearance in human liver at 100 uM incubated upto 60 mins by LC-MS/MS analysis; type: ADME, tissue-based; settings: read-out: CLH
Mus musculus [5] = assay: Anti-pulmonary fibrosis activity in bleomycin-induced ip dosed C57BL/6 mouse model of pulmonary fibrosis assessed as inhibition of Smad3 protein phosphorylation level in lung at for 3 weeks by immunohistochemical analysis; type: functional, organism-based; settings: dose 50-100 mg/kg
[6] = biological target: T2, Polyamine deacetylase HDAC10 (Homo sapiens, UniProt Q969S8); assay: Inhibition of N-terminal FLAG-tagged recombinant human HDAC10 (2 to 631 residues) expressed in baculovirus sf9 insect cells expression system using Boc-Lys (Ac)-AMC as substrate incubated for 120 mins by fluorescence analysis
T2 sequence (Q969S8 whole entry): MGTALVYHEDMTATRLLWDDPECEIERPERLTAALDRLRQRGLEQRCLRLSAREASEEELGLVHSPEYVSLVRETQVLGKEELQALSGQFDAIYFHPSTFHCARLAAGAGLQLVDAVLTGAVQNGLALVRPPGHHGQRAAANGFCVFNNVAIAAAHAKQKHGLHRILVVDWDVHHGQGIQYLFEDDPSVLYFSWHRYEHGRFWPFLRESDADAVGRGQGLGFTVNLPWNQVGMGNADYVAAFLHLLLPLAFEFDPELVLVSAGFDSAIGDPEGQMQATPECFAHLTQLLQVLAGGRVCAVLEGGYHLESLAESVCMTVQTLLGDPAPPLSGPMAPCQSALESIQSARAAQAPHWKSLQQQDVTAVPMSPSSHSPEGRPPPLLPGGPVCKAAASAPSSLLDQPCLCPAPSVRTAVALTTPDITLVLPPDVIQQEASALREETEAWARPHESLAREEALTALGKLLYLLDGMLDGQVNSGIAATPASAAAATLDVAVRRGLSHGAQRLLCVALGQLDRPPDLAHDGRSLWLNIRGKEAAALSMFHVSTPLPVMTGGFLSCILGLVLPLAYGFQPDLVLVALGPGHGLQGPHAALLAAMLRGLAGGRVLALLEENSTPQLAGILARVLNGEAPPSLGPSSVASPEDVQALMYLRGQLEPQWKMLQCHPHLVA

Mus musculus [7] = assay: Anti-pulmonary fibrosis activity in bleomycin-induced C57BL/6 mouse model of pulmonary fibrosis assessed as decrease in fibrosis scars in lung at 50 to 100 mg/kg, ip for 3 weeks by H and E staining based fluorescence microscopic analysis; type: functional, organism-based; settings: dose 50-100 mg/kg

## CC(=O)O.O=C(NO)c1ccc(CN2C(=O)[C@@H]3CCCN3Cc3ccccc32)cc1
Mus musculus [1]
  Activity: Active
[2]
  remaining at 1 h, 100 µM: 95.7%
HELF
  Activity: Dose-Dependent Effect
[3]
  pIC50: 8.05
[4]
  CLint scaled at 100 µM: < 8.6 mL/min/kg
Mus musculus [5]
  inhibition: Dose-Dependent Effect
[6]
  pIC50: 5.88
Mus musculus [7]
  Activity: Active

Source: ChEMBL document CHEMBL5584244, “Discovery of novel pyrrolo[2,1-c][1,4]benzodiazepine-3,11-dione (PBD) derivatives as selective HDAC6 inhibitors for the efficient treatment of idiopathic pulmonary fibrosis (IPF) in vitro and in vivo” (Eur J Med Chem, 2024)
